Calls of active or inactive are those of the source.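 Rule for the calls: active = 40% activation versus positive control reached by fitted dose-response curve at or below highest valid tested dose; inconclusive = poor fit quality, or flat fit with activation between 30% and 70%; inactive = the rest.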
Experiment: Xi-linked GFP reactivating small molecules – imaging, 68-5-11 mouse fibroblasts, cherry-pick, dose response (AID 743394);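 note: sensitizer 5-aza-dC present in the wells at 0.5 mM final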
Conditions: 68-5-11 mouse fibroblast XiGFP reporter, % GFP-positive imaging, 3 d; at 19.5 µM (top of the series)

**Q.** For O=C(c1cccc2ccccc12)C1CCCN(Cc2ccon2)C1 (stereo unspecified), which activation is on record?
**A.** 0.107% (inactive)

Same assay, conditions: 68-5-11 mouse fibroblast XiGFP reporter, % GFP-positive imaging, 3 d; at 19.5 µM (top of the series); cells co-treated with 5-aza-dC sensitizer; scaled: neutral wells 0, ellipticine wells 100

**Q.** For C=CC[C@@H](CC(=O)N(CCO)Cc1ccccc1)C(=O)NCCOC(=O)[C@@H](CC=C)Cc1ccc(F)cc1, which activation is on record?
**A.** -0.009% (inactive)

**Q.** With Cc1ccc(NC(=O)c2ccc(=O)[nH]c2)cc1S(=O)(=O)N1CCCCCC1 as the compound, how does the activation read?
**A.** 0.105% (inactive)

**Q.** With COc1ccc2c3c(n(C)c2c1)[C@H](CO)N(Cc1ccccc1F)CC31CCN(CC2CC2)CC1 as the compound, how does the activation read?
**A.** 0.046% (inactive)

**Q.** With COC(=O)C(C(C)C)N1CCc2c(C)nc3c(C#N)cnn3c21 (stereo unspecified) as the compound, how does the activation read?
**A.** 0.052% (inactive)

**Q.** Which activation does the source give for COc1cccc(CNC(=O)c2cc(S(=O)(=O)N3CCOCC3)cn2C)c1 here?
**A.** 0.576% (inactive)

**Q.** With CCOC(=O)c1sc(Nc2ccc(Br)cc2)nc1C as the compound, how does the activation read?
**A.** 0.082% (inactive)

**Q.** Which activation does the source give for CC(C)(C)C1CCNC(=O)CC1 (stereo unspecified) here?
**A.** 0.008% (inactive)

**Q.** Which activation does the source give for CC(=O)N(C)C[C@@H]1Oc2ncc(-c3cccnc3)cc2C(=O)N([C@@H](C)CO)C[C@@H]1C here?
**A.** 0.082% (inactive)

**Q.** With Cc1ccc(S(=O)(=O)NN2C(=O)/C(=C/c3ccccn3)SC2=S)cc1 as the compound, how does the activation read?
**A.** 0.025% (inactive)

**Q.** With COc1ccc2c3c(n(C)c2c1)[C@H](CO)N(C(=O)CN1CCOCC1)CC31CCN(C(=O)Nc2cccc(F)c2)CC1 as the compound, how does the activation read?
**A.** -0.035% (inactive)

**Q.** Which activation does the source give for CN(c1ccccc1)S(=O)(=O)c1ccc(C(=O)NCC(c2ccco2)N2CCCCC2)cc1 (stereo unspecified) here?
**A.** -0.009% (inactive)

**Q.** Which activation does the source give for O=C(NC1=C(NC2CCS(=O)(=O)C2)C(=O)c2ccccc2C1=O)c1ccccc1 (stereo unspecified) here?
**A.** -0.047% (inactive)

**Q.** Which activation does the source give for Cc1nn2c(NCCCN(C)C)c3c(nc2c1-c1ccccc1)CCCC3 here?
**A.** 0.079% (inactive)

**Q.** For Cc1ccc(Cl)cc1NC(=O)CCC(=O)O, which activation is on record?
**A.** -0.002% (inactive)

**Q.** For O=C(OCc1cc(=O)n2c(n1)sc1ccccc12)c1ccc(O)cc1O, which activation is on record?
**A.** 0.076% (inactive)

**Q.** For S=C(NCc1ccco1)Nc1cccc(Cl)c1Cl, which activation is on record?
**A.** -0.047% (inactive)

**Q.** Which activation does the source give for O=C1CSC(c2cccnc2)N1Cc1ccc(Cl)cc1Cl (stereo unspecified) here?
**A.** -0.022% (inactive)

**Q.** With CCOc1cccc(/C=N/NC(=S)Nc2cc(S(=O)(=O)N3CCOCC3)ccc2N2CCOCC2)c1O as the compound, how does the activation read?
**A.** 6.09% (inactive)

**Q.** With CCCCCC[n+]1ccccc1/C=C/c1ccc(N(C)C)cc1 as the compound, how does the activation read?
**A.** 6.32% (inactive)

**Q.** Which activation does the source give for COc1ccccc1-c1ccc(/C=N/O)o1 here?
**A.** -0.003% (inactive)

**Q.** Which activation does the source give for CCn1nc(C)cc1-c1nnc(Sc2ncc([N+](=O)[O-])s2)n1C here?
**A.** -0.032% (inactive)

**Q.** Which activation does the source give for COc1ccc(N(CC(=O)Nc2nccs2)S(=O)(=O)c2c(C)[nH]c(=O)[nH]c2=O)cc1 here?
**A.** 0.033% (inactive)

**Q.** For O=C(O)CSc1ncccn1, which activation is on record?
**A.** -0.015% (inactive)

**Q.** Which activation does the source give for CC1=Nc2ccccc2/C1=C\c1sc(Nc2ccc(C)cc2)nc1O here?
**A.** 0.535% (inactive)

**Q.** With CCOC(=O)N1CCN(Cc2cc(Cl)c3cccnc3c2O)CC1 as the compound, how does the activation read?
**A.** -0.05% (inactive)

**Q.** For O=C(C[C@@H]1C[C@@H]2c3cc(NC(=O)C4CCC4)ccc3O[C@@H]2[C@@H](CO)O1)NCc1ccc(Cl)cc1, which activation is on record?
**A.** 0.899% (inactive)

**Q.** Which activation does the source give for O=C(NNC(=O)c1ccccc1Cl)c1ccccc1Cl here?
**A.** -0.034% (inactive)

**Q.** Which activation does the source give for Cc1cccc(NCc2ccc(O)c3ncccc23)c1C here?
**A.** 0.288% (inactive)

**Q.** With Cc1ccc2[nH]c(C(=O)O)c(NC(=O)[C@@H]3C[C@@H]3c3ccccc3)c2c1 as the compound, how does the activation read?
**A.** -0.035% (inactive)

**Q.** With Cc1oc2ccc(NS(=O)(=O)c3cccc4cccnc34)cc2c1C(=O)OC(C)C as the compound, how does the activation read?
**A.** 0.423% (inactive)

**Q.** For Cn1c(=O)c(C#N)c(-c2ccc(F)cc2)c2cc(C(=O)c3cc(Cl)cc(Cl)c3O)cnc21, which activation is on record?
**A.** -0.044% (inactive)

**Q.** With O=[N+]([O-])c1ccc(S(=O)(=O)c2ccccc2)nc1 as the compound, how does the activation read?
**A.** -0.024% (inactive)

**Q.** With Cn1c2ccccc2c2cnn(CC(=O)Nc3ccccc3Br)c(=O)c21 as the compound, how does the activation read?
**A.** 0.034% (inactive)

**Q.** For Cn1c(=N)n(CC(=O)c2ccccc2)c2ccccc21, which activation is on record?
**A.** 0.105% (inactive)

**Q.** Which activation does the source give for O=C(C[C@H]1CC[C@H]2[C@@H](COC[C@@H](O)CN2C(=O)Nc2ccccc2)O1)NCCc1ccncc1 here?
**A.** 0.207% (inactive)

**Q.** With O=C(CC1CC1)N1CC(=O)N2[C@@H](CO)[C@H](c3ccc(C#Cc4ccc(F)cc4)cc3)[C@@H]2C1 as the compound, how does the activation read?
**A.** -0.031% (inactive)

**Q.** With CCOC(=O)Cc1csc(NC(=O)Nc2ccc(F)cc2)n1 as the compound, how does the activation read?
**A.** 0.472% (inactive)

**Q.** With COc1ccc(NC(=O)Nc2ccc3c(c2)C(=O)N([C@H](C)CO)C[C@H](C)[C@H](CN(C)Cc2ccc4c(c2)OCO4)O3)cc1 as the compound, how does the activation read?
**A.** -0.031% (inactive)

**Q.** For CN(C)S(=O)(=O)c1cccc(C(=O)NCC2(N3CCOCC3)CCCCC2)c1, which activation is on record?
**A.** -0.002% (inactive)

**Q.** Which activation does the source give for COc1ccc(N2CCN(C(CNC(=O)c3ccc4c(c3)OCO4)c3ccco3)CC2)cc1 (stereo unspecified) here?
**A.** -0.08% (inactive)

**Q.** With CC(=O)c1ccc(NC(=O)COC(=O)CCc2ccc(S(=O)(=O)N3CCOCC3)cc2)cc1 as the compound, how does the activation read?
**A.** 0.332% (inactive)

**Q.** Which activation does the source give for Cc1cc(NC(=O)c2c(-c3c(Cl)cccc3Cl)noc2C)n(C)n1 here?
**A.** -0.127% (inactive)

**Q.** With COc1ccc(-c2ccc3[nH]c4c(c3c2)CCN2C(=O)[C@@H]([C@H](C)O)[C@@H](N(C)C(=O)Nc3ccc(F)cc3)C[C@@H]42)cc1 as the compound, how does the activation read?
**A.** 1.96% (inactive)

**Q.** With COC(=O)CCN1CCC(c2cc(-c3cccc(C(F)(F)F)c3)n[nH]2)CC1 as the compound, how does the activation read?
**A.** 0.056% (inactive)

**Q.** Which activation does the source give for NS(=O)(=O)c1cccc(NC(=O)COC(=O)Cc2ccc(S(=O)(=O)N3CCOCC3)s2)c1 here?
**A.** 0.056% (inactive)

**Q.** With COc1ccc(C(=O)Nc2ccc3oc(-c4cccc(F)c4)nc3c2)cc1OC as the compound, how does the activation read?
**A.** 0.002% (inactive)

**Q.** With CC1Oc2ccccc2C=C1/C=N\NC(=O)c1cccnc1 (stereo unspecified) as the compound, how does the activation read?
**A.** 0.047% (inactive)

**Q.** Which activation does the source give for CCOc1ccc(N2C(=O)CC(Sc3nc(O)c(CC)c(=O)[nH]3)C2=O)cc1 (stereo unspecified) here?
**A.** 0.001% (inactive)

**Q.** With COCCNC(=O)CSc1nc2scc(-c3ccccc3)c2c(=O)[nH]1 as the compound, how does the activation read?
**A.** -0.001% (inactive)

**Q.** Which activation does the source give for Cc1ccccc1-c1ccc(C2[C@@H]3CN(Cc4cocn4)C[C@H]2N3)cc1 (stereo partly specified) here?
**A.** -0.031% (inactive)

**Q.** With Cc1nn(-c2ccccc2)c2ncc(C(=O)c3cc(Cl)ccc3O)cc12 as the compound, how does the activation read?
**A.** 0.1% (inactive)

**Q.** For CCOC(=O)c1nn(-c2ccc3ccccc3c2)cc1O, which activation is on record?
**A.** 0.359% (inactive)

**Q.** For CN(C)C(=O)CN1CCN(Cc2nc(CC3CC3)no2)CC1, which activation is on record?
**A.** -0.032% (inactive)

**Q.** For COc1ccc(C(=O)N/N=C/c2cc(Br)ccc2O)cc1OC, which activation is on record?
**A.** -0.037% (inactive)

**Q.** For COc1ccc(-n2c(=O)n(Cc3ccccc3)c(=O)c3[nH]cnc32)cc1, which activation is on record?
**A.** -0.053% (inactive)

**Q.** With O=C(OCc1cccc(F)c1)c1ccc2c(=O)n3c(nc2c1)CCC3 as the compound, how does the activation read?
**A.** 1.02% (inactive)

**Q.** Which activation does the source give for Cc1ccccc1NC(=O)c1c(C)[nH]c(=S)c(C#N)c1-c1ccc(Cl)cc1 here?
**A.** 0.075% (inactive)

**Q.** For Clc1ccc(-c2nc(-c3ccncc3)no2)c(Cl)c1, which activation is on record?
**A.** -0.034% (inactive)

**Q.** For Cc1ccc(-c2csc3nc4c5ccccc5c(NCCCN(C)C)nn4c(=O)c23)cc1, which activation is on record?
**A.** -0.05% (inactive)

**Q.** Which activation does the source give for O=CNc1ccc2c(c1)Cc1cc([N+](=O)[O-])ccc1-2 here?
**A.** 0.191% (inactive)

**Q.** Which activation does the source give for Cc1cccc(NC(=O)Cn2cnc3c(oc4nc5c(cc43)COC(C)(C)C5)c2=O)c1 here?
**A.** 4.42% (inactive)

**Q.** Which activation does the source give for COC(=O)c1cc(NS(=O)(=O)c2ccc(NC(C)=O)cc2)ccc1Cl here?
**A.** -0.044% (inactive)

**Q.** With O=C(/C=C/Sc1ccc(C(F)(F)F)cn1)c1ccccc1 as the compound, how does the activation read?
**A.** 0.096% (inactive)

**Q.** For COC(=O)c1cnn(-c2ccccc2)c1N, which activation is on record?
**A.** 0.12% (inactive)

**Q.** For COc1ccc2nc(SCC(=O)Nc3ccccc3OC)[nH]c2c1, which activation is on record?
**A.** -0.024% (inactive)

Source: PubChem BioAssay AID743394 (Broad Institute, 2014)
